In US10501421B1, “Substituted benzimidazoles as modulators of Ras signaling” (VANDERBILT UNIVERSITY, priority 2017, dated 2019):
Counter-ions that a name gives are not always drawn.

What was measured:
[1] = target: Ras GEF SOS (Son of Sevenless) (Homo sapiens, UniProt Q07889); test: SOS-mediated nucleotide exchange on Ras (BODIPY-GDP fluorescence); format: biochemical; details: SOS-mediated exchange of BODIPY-GDP for GTP on Ras
Summary of the method: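 Ras loaded with BODIPY-GDP was mixed in buffer with test compound, then GTP and SOS. Fluorescence change from labeled GDP/GTP exchange was followed over time, and rates came from single-exponential fits. EC50 came from a four-parameter fit of mean rate against compound concentration.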

Son of Sevenless (SOS) = target: T1, Son of Sevenless (SOS) (Homo sapiens, UniProt Q07889); test: Binding to SOS, fluorescence polarization anisotropy (FPA) probe displacement; details: displacement of FITC-conjugated probe (Example 285), affinity calculated from IC50
T1 sequence (Q07889 564-1049 limits assumed): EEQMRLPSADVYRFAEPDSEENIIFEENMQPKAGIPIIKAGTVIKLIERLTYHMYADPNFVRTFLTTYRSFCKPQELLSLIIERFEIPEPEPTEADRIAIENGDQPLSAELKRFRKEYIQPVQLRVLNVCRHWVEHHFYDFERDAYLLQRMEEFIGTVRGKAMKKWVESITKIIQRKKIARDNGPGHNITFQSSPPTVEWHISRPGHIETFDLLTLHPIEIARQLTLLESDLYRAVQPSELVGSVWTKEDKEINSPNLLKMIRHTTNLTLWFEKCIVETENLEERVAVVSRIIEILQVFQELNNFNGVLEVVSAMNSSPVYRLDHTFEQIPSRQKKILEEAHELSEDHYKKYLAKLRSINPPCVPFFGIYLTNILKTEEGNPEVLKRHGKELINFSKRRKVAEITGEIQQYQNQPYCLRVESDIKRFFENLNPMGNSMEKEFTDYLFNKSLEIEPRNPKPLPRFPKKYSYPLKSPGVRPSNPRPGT
Summary of the method: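 A FITC-conjugated probe compound was incubated with SOS in buffer, and its displacement was tracked as a change in fluorescence anisotropy across a test-compound dose range. IC50 came from a four-parameter variable-slope fit, and binding affinity was calculated from it.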

Chain of Ras GEF SOS (Son of Sevenless) (P01112 1-166 partner limits assumed, one chain of several): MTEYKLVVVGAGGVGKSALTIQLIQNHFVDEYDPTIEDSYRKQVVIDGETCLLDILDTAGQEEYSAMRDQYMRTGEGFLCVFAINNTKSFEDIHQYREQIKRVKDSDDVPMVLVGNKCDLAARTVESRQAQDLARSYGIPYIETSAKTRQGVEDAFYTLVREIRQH

Row | SMILES | EC50 [1] | Ki (Son of Sevenless (SOS))
1 | NCCNCc1cc(Cl)cc2c1nc(N1CCNCC1)n2Cc1ccc(F)c(Cl)c1 [Example 137, N^1-((6-chloro-1-(3-chloro-4-fluorobenzyl)-2-(piperazin-1-yl)-1H-benzo[d]imidazol-4-yl)methyl)ethane-1,2-diamine trifluoroacetate] | 1 to 5 µM | 1000 to 5000 nM
2 | Cc1cc(-c2ccccc2C)c2ncn(Cc3cc(C)c(F)c(C)c3)c2c1 [Example 142, 1-(4-fluoro-3,5-dimethylbenzyl)-6-methyl-4-(o-tolyl)-1H-benzo[d]imidazole] | 30 to 100 µM | > 5000 nM
3 | Cc1cc(-c2ccccc2C)c2ncn(Cc3ccc(F)c(Cl)c3)c2c1 [Example 143, 1-(3-chloro-4-fluorobenzyl)-6-methyl-4-(o-tolyl)-1H-benzo[d]imidazole] | 5 to 30 µM | > 5000 nM
4 | Cc1cc(CN(C)C)c2ncn(Cc3ccc(F)c(Cl)c3)c2c1 [Example 145, 1-(1-(3-chloro-4-fluorobenzyl)-6-methyl-1H-benzo[d]imidazol-4-yl)-N,N-dimethylmethanamine trifluoroacetate] | 30 to 100 µM | > 5000 nM
5 | CCCN1CC[C@@H](C(=O)c2ccccc2)[C@H]1c1cc(Cl)cc2c1nc(N1CCNCC1)n2Cc1cc(C)c(F)c(C)c1 [Example 148, ((2S,3R)-2-(6-chloro-1-(4-fluoro-3,5-dimethylbenzyl)-2-(piperazin-1-yl)-1H-benzo[d]imidazol-4-yl)-1-propylpyrrolidin-3-yl)(phenyl)methanone trifluoroacetate] | 1 to 5 µM | 500 to 1000 nM
6 | CC(C)CN1CC[C@@H](C(=O)c2ccccc2)[C@H]1c1cc(Cl)cc2c1nc(N1CCNCC1)n2Cc1ccc(F)c(Cl)c1 [Example 150, ((2S,3R)-2-(6-chloro-1-(3-chloro-4-fluorobenzyl)-2-(piperazin-1-yl)-1H-benzo[d]imidazol-4-yl)-1-isobutylpyrrolidin-3-yl)(phenyl)methanone trifluoroacetate] | 5 to 30 µM | > 5000 nM
7 | CC(C)CN1CC[C@@H](C(=O)c2ccccc2)[C@@H]1c1cc(Cl)cc2c1nc(N1CCNCC1)n2Cc1ccc(F)c(Cl)c1 [Example 151, ((2R,3R)-2-(6-chloro-1-(3-chloro-4-fluorobenzyl)-2-(piperazin-1-yl)-1H-benzo[d]imidazol-4-yl)-1-isobutylpyrrolidin-3-yl)(phenyl)methanone trifluoroacetate] | 5 to 30 µM | > 5000 nM
8 | CC(C)N1CC[C@@H](C(=O)c2ccccc2)[C@@H]1c1cc(Cl)cc2c1nc(N1CCNCC1)n2Cc1ccc(F)c(Cl)c1 [Example 153, ((2R,3R)-2-(6-chloro-1-(3-chloro-4-fluorobenzyl)-2-(piperazin-1-yl)-1H-benzo[d]imidazol-4-yl)-1-isopropylpyrrolidin-3-yl)(phenyl)methanone trifluoroacetate] | 5 to 30 µM | > 5000 nM
9 | Cc1cc(Cn2c(NCCN)nc3c([C@@H](N)c4ccccc4)cc(Cl)cc32)cc(C)c1F [Example 160, (S)—N^1-(4-(amino(phenyl)methyl)-6-chloro-1-(4-fluoro-3,5-dimethylbenzyl)-1H-benzo[d]imidazol-2-yl)ethane-1,2-diamine trifluoroacetate] | 1 to 5 µM | < 500 nM
10 | C=C[C@@H](N)c1cc(C)cc2c1nc(N1CCNCC1)n2Cc1cc(C)c(F)c(C)c1 [Example 163, (R)-1-(1-(4-fluoro-3,5-dimethylbenzyl)-6-methyl-2-(piperazin-1-yl)-1H-benzo[d]imidazol-4-yl)prop-2-en-1-amine trifluoroacetate] | 1 to 5 µM | 500 to 1000 nM
11 | CCC[C@H](N)c1cccc2c1nc(N1CCNCC1)n2Cc1ccc(F)c(Cl)c1 [Example 165, (S)-1-(1-(3-chloro-4-fluorobenzyl)-2-(piperazin-1-yl)-1H-benzo[d]imidazol-4-yl)butan-1-amine trifluoroacetate] | 1 to 5 µM | 1000 to 5000 nM
12 | COc1ccc(-n2nccc2-c2cc(Cl)cc3c2nc(N2CCNCC2)n3Cc2ccc(F)c(Cl)c2)cc1 [Example 168, 6-chloro-1-(3-chloro-4-fluorobenzyl)-4-(1-(4-methoxyphenyl)-1H-pyrazol-5-yl)-2-(piperazin-1-yl)-1H-benzo[d]imidazole trifluoroacetate] | 1 to 5 µM | 500 to 1000 nM
13 | CC(C)c1ccc(-n2nccc2-c2cc(Cl)cc3c2nc(N2CCNCC2)n3Cc2ccc(F)c(Cl)c2)cc1 [Example 169, 6-chloro-1-(3-chloro-4-fluorobenzyl)-4-(1-(4-isopropylphenyl)-1H-pyrazol-5-yl)-2-(piperazin-1-yl)-1H-benzo[d]imidazole trifluoroacetate] | 1 to 5 µM | > 5000 nM
14 | Cc1cc2c(nc(N3CCNCC3)n2Cc2ccc(F)c(Cl)c2)c(-c2ccnn2-c2ccccc2)c1C [Example 171, 1-(3-chloro-4-fluorobenzyl)-5,6-dimethyl-4-(1-phenyl-1H-pyrazol-5-yl)-2-(piperazin-1-yl)-1H-benzo[d]imidazole trifluoroacetate] | 1 to 5 µM | 1000 to 5000 nM
15 | Cc1cc2c(nc(N3CCNCC3)n2Cc2ccc(F)c(Cl)c2)c(-c2ccnn2-c2ccc(Br)cc2)c1C [Example 172, 4-(1-(4-bromophenyl)-1H-pyrazol-5-yl)-1-(3-chloro-4-fluorobenzyl)-5,6-dimethyl-2-(piperazin-1-yl)-1H-benzo[d]imidazole trifluoroacetate] | 1 to 5 µM | 1000 to 5000 nM
16 | Cc1cc2c(nc(N3CCNCC3)n2Cc2ccc(F)c(Cl)c2)c(-c2ccnn2-c2ccc(C(C)C)cc2)c1C [Example 173, 1-(3-chloro-4-fluorobenzyl)-4-(1-(4-isopropylphenyl)-1H-pyrazol-5-yl)-5,6-dimethyl-2-(piperazin-1-yl)-1H-benzo[d]imidazole trifluoroacetate] | 5 to 30 µM | > 5000 nM
17 | CC(C)Cn1nccc1-c1cc(Cl)cc2c1nc(N1CCNCC1)n2Cc1ccc(F)c(Cl)c1 [Example 174, 6-chloro-1-(3-chloro-4-fluorobenzyl)-4-(1-isobutyl-1H-pyrazol-5-yl)-2-(piperazin-1-yl)-1H-benzo[d]imidazole trifluoroacetate] | 1 to 5 µM | < 500 nM

Now from value to compound:

Row | EC50 [1] | Ki (Son of Sevenless (SOS)) | SMILES
18 | < 1 µM | < 500 nM | Cc1cc(-c2c(C)nn(C)c2C)c2nc(N3CCNCC3)n(Cc3ccc(F)c(Cl)c3)c2c1 [Example 121, 1-(3-chloro-4-fluorobenzyl)-6-methyl-2-(piperazin-1-yl)-4-(1,3,5-trimethyl-1H-pyrazol-4-yl)-1H-benzo[d]imidazole trifluoroacetate]
19 | 1 to 5 µM | 500 to 1000 nM | Cc1cc(Cn2c(N3CCNCC3)nc3c(-c4ccc(CN)cc4)cc(Cl)cc32)cc(C)c1F [Example 122, (4-(6-chloro-1-(4-fluoro-3,5-dimethylbenzyl)-2-(piperazin-1-yl)-1H-benzo[d]imidazol-4-yl)phenyl)methanamine trifluoroacetate]
20 | 1 to 5 µM | 1000 to 5000 nM | Cc1cc(Cn2c(N3CCNCC3)nc3c(C#Cc4ccccc4)cc(Cl)cc32)cc(C)c1F [Example 123, 6-chloro-1-(4-fluoro-3,5-dimethylbenzyl)-4-(phenylethynyl)-2-(piperazin-1-yl)-1H-benzo[d]imidazole trifluoroacetate]
21 | < 1 µM | 500 to 1000 nM | CN(CCO)Cc1cc(Cl)cc2c1nc(N1CCNCC1)n2Cc1ccc(F)c(Cl)c1 [Example 134, 2-(((6-chloro-1-(3-chloro-4-fluorobenzyl)-2-(piperazin-1-yl)-1H-benzo[d]imidazol-4-yl)methyl)(methyl)amino)ethan-1-ol trifluoroacetate]
22 | < 1 µM | 1000 to 5000 nM | CN(CCCO)Cc1cc(Cl)cc2c1nc(N1CCNCC1)n2Cc1ccc(F)c(Cl)c1 [Example 135, 3-(((6-chloro-1-(3-chloro-4-fluorobenzyl)-2-(piperazin-1-yl)-1H-benzo[d]imidazol-4-yl)methyl)(methyl)amino)propan-1-ol trifluoroacetate]
23 | < 1 µM | 1000 to 5000 nM | CCN(CC)Cc1cc(Cl)cc2c1nc(N1CCNCC1)n2Cc1ccc(F)c(Cl)c1 [Example 136, N-((6-chloro-1-(3-chloro-4-fluorobenzyl)-2-(piperazin-1-yl)-1H-benzo[d]imidazol-4-yl)methyl)-N-ethylethanamine trifluoroacetate]
24 | < 1 µM | 1000 to 5000 nM | CCNCc1c(C)c(C)cc2c1nc(NCCN)n2Cc1ccc(F)c(Cl)c1 [Example 147, N^1-(1-(3-chloro-4-fluorobenzyl)-4-((ethylamino)methyl)-5,6-dimethyl-1H-benzo[d]imidazol-2-yl)ethane-1,2-diamine trifluoroacetate]
25 | < 1 µM | 500 to 1000 nM | N[C@H](c1cc(Cl)cc2c1nc(N1CCNCC1)n2Cc1ccc(F)c(Cl)c1)C1CC1 [Example 167, (S)-(6-chloro-1-(3-chloro-4-fluorobenzyl)-2-(piperazin-1-yl)-1H-benzo[d]imidazol-4-yl)(cyclopropyl)methanamine trifluoroacetate]
